# Laboratory results taken from US8293240B2, “Method of treating drug-resistant cancer” (The Regents of the University of Colorado, priority 2004, dated 2012).
# Experiments:
# [1] = tested on: human leukemia RU937 cells; assay: mitochondrial membrane potential (MitoTracker), RU937; format: cell-based; conditions: RU937, 24 hours of incubation, FIG. 13
# Description: Flow Cytometry. Cells were harvested, counted, and resuspended at 10^6 cells/100 μl of PBS containing 2.5% fetal calf serum in preparation for flow cytometric analysis. Cells were stained for intracellular H202 using 6-carboxy-2′,7′-dichlorodihydrofluorescein diacetate (DCF-DA, Molecular Probes, Eugene, Oreg.). Briefly, cells were incubated at 37° with 1 mM DCF-DA for 20 minutes, washed twice in PBS containing 2.5% fetal calf serum and analyzed flow cytometrically. Mitochondrial membrane potential was assessed using Mitotracker Red (CM-H2XROS, Molecular Probes, Eugene, Oreg.). The cells were resuspended in PBS containing 2.5% fetal calf serum containing a final concentration of 0.5 micromolar Mitotracker dye. The cells were incubated at 37° for 20 minutes, washed twice in PBS containing 2.5% fetal calf serum and analyzed flow cytometrically. Data were acquired on a Coulter Elite Epics or Excel flow cytometer (Coulter, Hialeah, Fla.) and analyzed with CellQuest software, (Becton Dickinson, San Jose, Calif.). […] Each sample population was classified for cell size (forward scatter) and complexity (side scatter), gated on a population of interest and evaluated using 5,000 cells. […]
# The effects of etomoxir on human leukemia RU937 cells was determined. […]
# HL60 MDR tumor = assay: tumor volume of HL60 MDR tumor implanted in nude mice; format: in vivo; conditions: for tumor volume: 200 ug Etomoxir, 2.5 mM 2-Deoxy-D-glucose
# Description: Tumor implantation. Mice were purchased from the Animal Production Program of National Cancer Institute, Frederick, Md. The animals used were Athymic Ncr-nu/nu (strain code 01B74). HL60 MDR cells were harvested and reconstituted at 1 million cells per 100 microliters of phosphate buffered saline. One million tumor cells per injection site were implanted subcutaneously on two sites of the animal's back. Treatments began at exactly seven days post tumor implantation. Tumor size/volume was monitored twice weekly using measurement calipers, with the formula Tumor Volume=π×(short diameter)^2×(long diameter)/6.
# Mice experiments with fatty acid metabolism and glucose metabolism inhibitors. Fatty acid metabolism inhibitors were exemplified by etomoxir at 200 micrograms/day. Glucose metabolism inhibitors were exemplified by 2-deoxy-D-glucose at 2.5 mM in 100 microliters daily. The combination was administered daily, etomoxir at 200 micrograms and 2-deoxy-D-glucose at 2.5 mM in 100 microliters. All drugs were administered intra-peritoneally. Fluorouracil, at 20 mg per kilogram mouse, was injected intra-peritoneally once a week
# HL60 MDR human leukemia cells were cultured and implanted in nude mice as described above under “Materials and Methods”. The mice were given 200 ug of Etomoxir, 2.5 mM 2-Deoxy-D-glucose, or both 200 ug of Etomoxir and 2.5 mM 2-Deoxy-D-glucose given daily by IP injection. Treatment began exactly one week after tumor implantation.
# Mice were purchased from National Cancer Institute, Animal Production Program (Frederick, Md.). The animals used were Athymic Ncr-nu/nu (Strain code 01B74). HL60 MDR cells were harvested and reconstituted at 1 million cells per 100 microliters of phosphate buffered saline. One million tumor cells/per injection site were implanted subcutaneously on two sites of the animal's back. Treatments began at exactly seven days post tumor implantation. Tumor size/volume was monitored twice weekly using measurement calipers with the formula for Tumor Volume=π(short diameter)^2(long diameter)/(divided by )6. […]
# B16F1 melanoma cells = assay: cell surface Fas (CD95) expression on B16F1 melanoma cells; format: cell-based, mouse; conditions: 48 hours
# Description: Cell Surface Staining. Non-permeabilized cells were stained with antibodies to the cell surface receptors Fas (CD95) (Pharmingen) or with antibodies to uncoupling proteins (anti-UCP2 antibody) (Alpha Diagnostic International). Antibodies for both the isotype control and actual stain were added to the cell suspension, mixed, and then placed on ice for and incubation of 25 minutes in the dark. Subsequently the cells were centrifuged at 300×g for 5 minutes and the supernatant removed. The cells were washed one time with 100 μL of PBS/2.5% FBS and then transferred into flow cyotmetric tubes containing 500 μL of PBS/2.5% FBS for analysis.
# B16F1 melanoma cells were cultured at a concentration of 0.5 to 1 million cells per ml. Cells were harvested and analyzed by flow cytometry. Dot plots are shown in FIG. 15 as functions of live versus dead cells. Each dot on the dot plot represents one cell. Five thousand cells were assessed for forward scatter (FS), as a function of cell size, versus side scatter (SS), as a function of cellular granularity. […]
# Referring to FIGS. 17 and 18, B16F1 melanoma cells of Example 12 were untreated or treated with etomoxir at the indicated concentrations for 48 hours. Cells were harvested, stained with fluorochrome conjugated anti-Fas antibody (Pharmingen) and analyzed by flow cytometry.
smiles,measurement,setting,value
"CCOC(=O)C1(CCCCCCOc2ccc(Cl)cc2)CO1 (centres unmarked) [etomoxir, 2-(6-(4-chlorophenoxy)-hexyl)-oxirane-2-carboxylic acid ethyl ester]",mitochondrial membrane potential (MitoTracker),[1],increased the levels of mitochondrial membrane potential
same,tumor volume,"HL60 MDR tumor; Day 7, daily IP from one week after implantation",36 mm^3
same,tumor volume,"HL60 MDR tumor; Day 9, daily IP",71.73 mm^3
same,tumor volume,"HL60 MDR tumor; Day 15, daily IP",261.35 mm^3
same,tumor volume,"HL60 MDR tumor; Day 21, daily IP",895.09 mm^3
same,effect on tumor growth,"HL60 MDR tumor; HL60 MDR in nude mice, 21 day period, single agent",increase in tumor growth
same,cell surface Fas expression,"B16F1 melanoma cells; B16F1 dead cell population, FIG. 18",dose dependent increase in cell surface Fas expression
same,cell surface Fas expression,"B16F1 melanoma cells; B16F1 live cell population, FIG. 17",dose dependent increase in cell surface Fas expression
